EC50 and Ki data for 37 compounds are collected here from PubChem BioAssay AID1897 (NMMLSC, 2009).

The structures appear in SMILES notation. Active and inactive are the calls of the source. The rule behind the calls is not given here.

One assay deals with Mitogen-activated protein kinase kinase kinase 2 (Homo sapiens) + Dual specificity mitogen-activated protein kinase kinase 5 (Homo sapiens) (UniProt Q9Y2U5+Q13163). In words: inhibitors of MEK5 binding to MEKK2, dose response, biochemical, bead multiplex flow cytometry, wildtype (AID 1897). The following applies: MEK5-MEKK2 PB1 binding.
Mitogen-activated protein kinase kinase kinase 2 (Homo sapiens) + Dual specificity mitogen-activated protein kinase kinase 5 (Homo sapiens), sequence (Q13163 whole entry, looked up): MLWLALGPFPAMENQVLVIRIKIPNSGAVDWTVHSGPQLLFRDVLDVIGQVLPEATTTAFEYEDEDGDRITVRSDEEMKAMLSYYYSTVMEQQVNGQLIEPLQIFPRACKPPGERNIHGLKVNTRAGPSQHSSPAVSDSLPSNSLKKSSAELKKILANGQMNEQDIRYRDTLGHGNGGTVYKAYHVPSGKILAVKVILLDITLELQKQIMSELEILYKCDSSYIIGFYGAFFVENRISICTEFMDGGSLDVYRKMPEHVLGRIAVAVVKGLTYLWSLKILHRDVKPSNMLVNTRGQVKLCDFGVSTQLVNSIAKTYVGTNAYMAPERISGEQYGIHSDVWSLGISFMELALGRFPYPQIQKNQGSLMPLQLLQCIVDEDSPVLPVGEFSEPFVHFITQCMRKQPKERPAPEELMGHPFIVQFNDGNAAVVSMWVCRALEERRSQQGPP
Mitogen-activated protein kinase kinase kinase 2 (Homo sapiens) + Dual specificity mitogen-activated protein kinase kinase 5 (Homo sapiens), sequence (Q9Y2U5 whole entry, looked up): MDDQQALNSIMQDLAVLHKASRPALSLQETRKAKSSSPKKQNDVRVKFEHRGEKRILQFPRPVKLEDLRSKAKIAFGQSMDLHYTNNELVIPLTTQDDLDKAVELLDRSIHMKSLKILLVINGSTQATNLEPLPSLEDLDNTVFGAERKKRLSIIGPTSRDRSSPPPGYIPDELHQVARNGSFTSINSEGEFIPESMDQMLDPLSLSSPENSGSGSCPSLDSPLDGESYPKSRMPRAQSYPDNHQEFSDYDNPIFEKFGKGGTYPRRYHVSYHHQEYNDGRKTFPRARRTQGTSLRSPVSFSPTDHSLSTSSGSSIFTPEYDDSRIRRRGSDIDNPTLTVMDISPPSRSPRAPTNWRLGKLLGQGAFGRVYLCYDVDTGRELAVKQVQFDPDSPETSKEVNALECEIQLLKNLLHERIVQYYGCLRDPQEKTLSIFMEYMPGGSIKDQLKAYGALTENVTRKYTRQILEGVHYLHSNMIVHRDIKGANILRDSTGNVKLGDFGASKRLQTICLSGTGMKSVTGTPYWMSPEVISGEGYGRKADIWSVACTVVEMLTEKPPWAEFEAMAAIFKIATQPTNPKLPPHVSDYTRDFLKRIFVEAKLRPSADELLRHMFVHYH
For orientation: EC50 means the concentration at which the effect is half-maximal. As to `COC(=O)c1c(C)oc(C)c1S(=O)(=O)N(Cc1ccccc1)C(C)C`, the EC50 was > 30 µM (inactive). On the same count and under the same terms, the result for `CCCCCCCCCC[N+](C)(C)CC/C=C1/c2ccccc2Sc2ccc(Cl)cc21` reads 2.24 µM. The same measure, in the same setting: to `CNC(=O)C(=O)Nc1c(C)cc(C)cc1C` belongs > 30 µM (inactive); to `COc1ccc(NC(=O)N(Cc2cc3cc(C)ccc3[nH]c2=O)CC2CCCO2)cc1` (stereo not drawn), > 30 µM (inactive). The same measure, in the same setting: the result for `CCCCCCCCCCOC(=O)Cn1c(COc2ccccc2C)[n+](C)c2ccccc21` reads > 30 µM (inactive). Take `C#CCOCCOCCOCCNc1nc(N2CCN(C(=O)[C@H]([C@@H](C)CC)n3cc([C@@H](N)CO)nn3)CC2)nc(N2CCN(C(=O)[C@H](Cc3cc4ccccc4[nH]3)n3cc([C@@H](N)Cc4ccc(O)cc4)nn3)CC2)n1`: the EC50 was 0.52 µM. Same read-out and setting: the result for `O=C1c2ccccc2-c2onc3ccc(NCCCn4ccnc4)c1c23` reads > 30 µM (inactive); that for `CCN1/C(=C/c2ccc3cc(C)ccc3[n+]2C)Sc2ccc3sccc3c21`, > 30 µM (inactive). Same read-out and setting: the result for `CCCCCCCCCCOC(=O)Cn1c(COc2ccccc2OC)[n+](C)c2ccccc21` reads 3.05 µM. Still for that read-out and setting: to `COc1ccc(CNC[C@@H](CCCCN(C)Cc2ccc(OC)cc2)N2C[C@H](c3ccccc3)N(CCc3ccc(Cl)c(Cl)c3)C(=O)C2=O)cc1` belongs 1.48 µM; to `CCN1/C(=C/C=C/C=C/C=C/c2sc3ccccc3[n+]2CC)Sc2ccccc21`, > 30 µM (inactive); to `CCOc1ccc(C2=C/C(=C/c3cccnc3)C(=O)O2)cc1`, > 30 µM (inactive). For `C#CCOCCOCCOCCNc1nc(N2CCN(C(=O)[C@H]([C@@H](C)CC)n3cc([C@@H](N)CC(C)C)nn3)CC2)nc(N2CCN(C(=O)[C@H](Cc3cc4ccccc4[nH]3)n3cc([C@@H](N)Cc4ccc(O)cc4)nn3)CC2)n1`, the EC50 was > 30 µM (inactive).

Regarding `CCN(Cc1ccccc1)S(=O)(=O)c1ccc(C(=O)N(CCCN(C)C)c2nc3ccc(F)cc3s2)cc1`, the EC50 was 5.81 µM. Still for that read-out and setting: the result for `COc1cc(/C=N/NC(=O)c2cc3ccccc3cc2O)ccc1OCCN1CCCCC1` reads > 30 µM (inactive). On the same count and under the same terms, to `COc1ccc(/C=N/Nc2cc(C)nc3ccc(Br)cc23)cc1` belongs 1.94 µM.

As to `COCc1c(C#N)c(NCCc2ccccc2)nc(C)c1[N+](=O)[O-]`, the EC50 is > 30 µM (inactive). Same read-out and setting: to `Cc1cc(N=Nc2ccc(C)c(N=Nc3cc(C)c(N)cc3N)c2)c(N)cc1N` belongs > 30 µM (inactive); to `C#CCOCCOCCOCCNc1nc(N2CCN(C(=O)[C@H](Cc3ccc(O)cc3)n3cc([C@@H](N)CC(C)C)nn3)CC2)nc(N2CCN(C(=O)[C@H](Cc3ccc(O)cc3)n3cc([C@@H](N)CC(C)C)nn3)CC2)n1`, 8.71 µM. For `O=C(c1cc(COc2c(F)cccc2F)on1)N1C[C@H]2CC[C@H]1C2`, the EC50 was > 30 µM (inactive). On the same count and under the same terms, the result for `COc1ccc(Cn2c(SCc3ccc(C)cc3)nc3cc(OC)c(OC)cc3c2=N)cc1Cl` reads 1.97 µM. The same measure, in the same setting: the result for `CCCCCc1cc(=O)oc2c(C(CCN3CCCCC3)c3ccc4c(c3)OCO4)c(OC)cc(OC)c12` (stereo not drawn) reads > 30 µM (inactive); that for `CN(C)c1ccc(/C=C/C=C2/SC(=S)N(c3ccccc3)C2=O)cc1`, 0.95 µM; that for `CCN1/C(=C\c2ccc3cc(C)ccc3[n+]2CC)Sc2cc(C)c(C)cc21`, > 30 µM (inactive).

Turning to `COc1cc2nc(N3CCN(c4cc(C)ccc4C)CC3)nc(N)c2cc1OC`, the EC50 is 3.89 µM. In the case of `c1ccc(CNc2nc(NCc3ccccc3)c3ccccc3n2)cc1`, the EC50 was > 30 µM (inactive). On the same count and under the same terms, to `CCCCCCCCCCOC(=O)Cn1c(COc2ccc(C)cc2)[n+](C)c2ccccc21` belongs 1.8 µM; to `Cc1cc2cc(CNC(=O)NC3CCCCC3)ccc2[nH]1`, 4.13 µM. Same read-out and setting: the result for `CCN1/C(=C/c2ccc3cc(C)cc(C)c3[n+]2CC)Sc2cc(C)ccc21` reads 1.88 µM; that for `CCN1C(c2ccccc2)=C(c2ccccc2)S/C1=C/C=C1\SC(=S)N(C)C1=O`, 2.73 µM.

Regarding `C#CCOCCOCCOCCNc1nc(N2CCN(C(=O)[C@H]([C@@H](C)CC)n3cc([C@@H](N)Cc4ccc(O)cc4)nn3)CC2)nc(N2CCN(C(=O)[C@H](Cc3cc4ccccc4[nH]3)n3cc([C@@H](N)C(C)CC)nn3)CC2)n1` (stereo partly drawn), the EC50 is 3.73 µM. On the same count and under the same terms, the result for `Cc1nn2c(N)csc2nc1=O` reads 4.09 µM; that for `Cc1nc(Nc2cnc(/C=C/c3cc(C(=O)Nc4cccc(C(F)(F)F)c4)ccc3C)cn2)cc(N2CCNCC2)n1`, > 30 µM (inactive); that for `OCCCCNCc1ccc(OCc2ccc(Cl)cc2Cl)cc1`, > 30 µM (inactive).

Regarding `CN1CCN(c2ccc(NC(=O)c3ccc(-c4ccc(Cl)cc4)o3)cc2)CC1`, the EC50 is 2.26 µM. Take `CCN1CCN(Cc2ccc(NC(=O)c3cc(NC(=O)C(=O)c4c[nH]c5ccccc45)cc(OC)c3)cc2C(F)(F)F)CC1`: the EC50 is 0.34 µM. Same read-out and setting: to `Cc1ccc(-n2cc(CNCCCn3ccnc3C)c(-c3ccc(F)cc3)n2)cc1` belongs > 30 µM (inactive).

Still in this assay, the particulars now being: MEK5-MEKK2 PB1 binding, measured here: Ki from binding competition.
Broadly, the Ki is the dissociation constant of the complex between target and ligand, obtained from inhibition or displacement. As to `CN(C)c1ccc(/C=C/C=C2/SC(=S)N(c3ccccc3)C2=O)cc1`, the Ki turned out to be 0.85 µM. Still for that read-out and setting: the result for `Cc1cc2cc(CNC(=O)NC3CCCCC3)ccc2[nH]1` reads 3.69 µM. The same measure, in the same setting: to `CCN1/C(=C/c2ccc3cc(C)cc(C)c3[n+]2CC)Sc2cc(C)ccc21` belongs 1.68 µM; to `CCN1C(c2ccccc2)=C(c2ccccc2)S/C1=C/C=C1\SC(=S)N(C)C1=O`, 2.44 µM; to `Cc1nn2c(N)csc2nc1=O`, 3.66 µM.

`CN1CCN(c2ccc(NC(=O)c3ccc(-c4ccc(Cl)cc4)o3)cc2)CC1`: the inhibitory constant (Ki) worked out at 2.02 µM.
